Inconclusive results are not listed. Active and inactive are the calls of the source.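 The calls were made as follows: active = compounds cutting cell count with a fitted half-maximal dose below twice the top dose, in every run; inconclusive = runs disagree, flat partial cut, or poor curve fit; inactive = every run called inactive.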
Tested on: not listed separately
Assay: CAPAN-1 proliferation reduction by RAD52 inhibitors – cell-based, imaging, dry powder, set 2, dose response (AID 743275)
Conditions: CAPAN-1 cell number, Hoechst imaging, 14 days; at 26 µM (top of the series)

Compound | activity change, negative = inhibition
Cc1cc(N2CCN(C)CC2)nc2ccc(NC(=S)N3CCN(c4ccc(Cl)cc4)CC3)cc12 | 16.1% (inactive)
COc1ccc2nc(NCCNC(=S)NCCCN3CCOCC3)c(C#N)cc2c1 | -10.2% (inactive)

Same assay, conditions: CAPAN-1 cell number, Hoechst imaging, 14 days; at 50 µM (top of the series)

Compound | activity change, negative = inhibition
CN(C)CCCNC(=S)N(CCN(C)C)Cc1cc2cc3c(cc2[nH]c1=O)OCCO3 | -7.72% (inactive)
c1ccc(-c2cc(N3CCC(N4CCCC4)CC3)n3nccc3n2)cc1 | 15.5% (inactive)
CN(CCCN1CCOCC1)c1cc(-c2ccc(F)cc2)nc2ccnn12 | -17.6% (inactive)
Cc1cc(N2CCN(C)CC2)nc2ccc(NC(=S)NCCCN3CCN(C)CC3)cc12 | 14.2% (inactive)
CN1CCCN(c2cc(-c3ccccc3)nc3ccnn23)CC1 | -7.07% (inactive)
Cc1cc(C)c2c(c1)c1nnc(SCCN3CCCCC3)nc1n2C | 6.3% (inactive)
OCCNc1nc(Nc2ccccc2F)nc2ccccc12 | 25.7% (inactive)
Cc1cc(N2CCN(C)CC2)nc2ccc(NC(=S)NCCCN3CCc4ccccc4C3)cc12 | 5.99% (inactive)
CCNC(=O)Nc1ccc2nc(N3CCN(C)CC3)cc(C)c2c1 | 20.3% (inactive)
COc1ccc(-c2oc3ncnc(NCCCN4CCOCC4)c3c2-c2ccc(OC)cc2)cc1 | 20.8% (inactive)
CCN(CC)CCCN(Cc1cc2cc3c(cc2[nH]c1=O)OCO3)C(=S)NCCCN(C)C | 15% (inactive)
Cc1nccn1Cc1ccc(NC(=O)c2cccc(NC(=O)c3cccnc3)c2)cc1 | 12.8% (inactive)
CN1CCN(c2ccc(NC(=O)c3cc(S(N)(=O)=O)ccc3N3CCOCC3)cc2)CC1 | 4.65% (inactive)
CN(C)CCCN(C(=O)c1nc2ccccc2s1)c1nc2ccc(F)cc2s1 | -18.3% (inactive)
CCN(CC)CCNc1nc(SC)nc2sc3c(c12)CCN(C)C3 | 7.64% (inactive)
CCCNc1nc(Cl)nc(NCc2cccnc2)n1 | 4.33% (inactive)
CN1CCN(CC(=O)Nc2c(C(=O)c3ccccc3)oc3ccccc23)CC1 | -11.9% (inactive)
CCCN(CCC)CCCNC(=S)Nc1ccc2nc(N3CCN(CC)CC3)cc(C)c2c1 | -17.4% (inactive)
Cc1ccc(C(=O)c2oc3ccccc3c2NC(=O)CN2CCN(C)CC2)cc1 | 9.01% (inactive)
COc1ccc(-c2nn(C)c3sc(C(=O)NCCCN4CCOCC4)cc23)cc1OC | -37% (inactive)
c1ccc(-c2cc(N3CCN(CCN4CCCC4)CC3)n3nccc3n2)cc1 | -9.44% (inactive)
CN(C)c1ccc(Nc2nc(N)c3ccccc3n2)cc1 | -26.6% (inactive)
O=c1c2c(-c3ccccc3)csc2nc2c3ccccc3c(NCCN3CCOCC3)nn12 | -2.92% (inactive)
COc1nc(NCc2ccccc2)nc(NCc2cccnc2)n1 | -3.86% (inactive)
CCCN1CCN(CCCNC(=S)Nc2ccc3nc(N4CCN(CC)CC4)cc(C)c3c2)CC1 | 0.584% (inactive)
COc1ccccc1Nc1nc(NCCO)c2ccccc2n1 | -17.4% (inactive)

Tested on: CAPAN-1 cell number, Hoechst imaging, 14 days
Assay: as above
Conditions: not given

Compound | AC50 [µM]
CCN1CCN(C(=S)Nc2ccc3nc(N4CCN(C)CC4)cc(C)c3c2)CC1 | 26.7
COc1ccc(OC)c(Nc2nc(NCCO)c3ccccc3n2)c1 | 30.2
Cn1nc(-c2ccc(Cl)cc2)c2cc(C(=O)NCCCN3CCCCCC3)sc21 | 23.9
CC1(C)CC(NC(=O)c2ccc(Cl)c(S(=O)(=O)N(Cc3ccccc3)c3ccccc3)c2)CC(C)(C)N1 | 22.1
Cc1ccc2sc(N(CCCN(C)C)C(=O)c3ccc(S(=O)(=O)N(C)C4CCCCC4)cc3)nc2c1C | 34.7
CCCCN(CC)CCNC(=O)c1cc2c(-c3ccc(Cl)cc3)nn(C)c2s1 | 12.6
COc1ccc(OC)c(Nc2nc(NCCCO)c3ccccc3n2)c1 | 24.6
CCN1CCN(c2cc(C)c3cc(NC(=O)c4ccccn4)ccc3n2)CC1 | 40.8
COc1cc2ccccc2cc1C(=O)N(CCN(C)C)c1nc2c(OC)ccc(OC)c2s1 | 33.3
COc1ccc2oc(C(=O)c3ccccc3)c(NC(=O)CN3CCN(C)CC3)c2c1 | 38.3
Cc1ccc(-c2nc(C(=O)NCCCN3CCOCC3)cc3c2[nH]c2ccccc23)cc1 | 30.8
CN(C)CCCNC(=S)NCC(c1ccc(Cl)cc1Cl)c1c[nH]c2ccccc12 (stereo not given) | 17.7
Cn1nc(-c2ccc(Cl)cc2)c2cc(C(=O)NCCCN3CCCC3)sc21 | 15.8
COc1ccc(C2NCCc3c2[nH]c2ccccc32)cc1COc1ccc(F)cc1 (stereo not given) | 15.2
Cc1ccc2sc(N(CCCN(C)C)C(=O)c3ccc(S(=O)(=O)N(C)Cc4ccccc4)cc3)nc2c1C | 20.4
Cc1cc(C)c2sc(N(CCCN(C)C)C(=O)CN3C(=O)c4ccccc4C3=O)nc2c1 | 26
CN1CCN(CCCNC(=O)c2cc3c(-c4ccc(Cl)cc4)nn(C)c3s2)CC1 | 7.4
Cc1ccc2nc(-c3ccc(NC(=S)NC4CC(C)(C)NC(C)(C)C4)cc3)sc2c1 | 23.6
CCCNc1nc(NCc2cccnc2)nc(N2CCOCC2)n1 | 26.5
CCCCN(CC)CCCNC(=S)Nc1ccc2nc(N3CCN(C)CC3)cc(C)c2c1 | 44.9
Cc1c(C(=O)Nc2ccc(S(=O)(=O)N(C)C3CCN(C)CC3)cc2)oc2c(Cl)cccc12 | 24.1
CCN(CC)CCN(C(=O)C1=COCCO1)c1nc2c(OC)ccc(OC)c2s1 | 48.6
c1ccc(CNc2nc(NCc3ccccc3)c3ccccc3n2)cc1 | 7.8
OCCNc1nc(Nc2ccccc2Cl)nc2ccccc12 | 23.9
CCN(CC)CCNC(=S)Nc1ccc2nc(N3CCN(CC)CC3)cc(C)c2c1 | 31.9
CN(C)CCCN(C(=O)c1ccc(C(=O)c2ccccc2)cc1)c1nc2cc3c(cc2s1)OCO3 | 30
C=C1Nc2cc(-c3ccc(Cl)cc3)nn2C(NCCN(C)C)=C1C | 31.6
